From ChEMBL document CHEMBL1909046, “DrugMatrix in vitro pharmacology data”

Assays:
[1] = DRUGMATRIX: Sodium/nucleoside co-transporter radioligand binding (ligand: nitrobenzylthioinosine); type: cell membranes, Cavia porcellus, Dunkin-Hartley, Cerebral cortex, Membrane; conditions: Not Active = under 50% inhibition at 10 µM
[2] = target: Platelet-activating factor receptor (Homo sapiens, UniProt P25105); type: tissue-based; note: in other assays of this panel Not Active means under 50% inhibition at 10 µM
Platelet-activating factor receptor, sequence (P25105 whole entry): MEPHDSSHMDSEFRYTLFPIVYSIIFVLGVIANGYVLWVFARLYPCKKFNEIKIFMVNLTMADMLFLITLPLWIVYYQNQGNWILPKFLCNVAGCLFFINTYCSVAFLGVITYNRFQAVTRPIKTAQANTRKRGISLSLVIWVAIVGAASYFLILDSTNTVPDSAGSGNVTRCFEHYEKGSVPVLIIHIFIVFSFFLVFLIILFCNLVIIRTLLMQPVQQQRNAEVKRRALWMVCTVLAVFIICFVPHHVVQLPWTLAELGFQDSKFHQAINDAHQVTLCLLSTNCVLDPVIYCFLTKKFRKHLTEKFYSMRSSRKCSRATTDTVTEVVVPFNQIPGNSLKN

[3] = DRUGMATRIX: Platelet-Derived Growth Factor (PDGF) radioligand binding (ligand: [125I] PDGF); type: cell-based; conditions: nih3t3; Not Active = under 50% inhibition at 10 µM
[4] = target: Matrix metalloproteinase-9 (Homo sapiens, UniProt P14780); assay: biochemical; type: cell-based;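 note: inhibition of isolated MMP-9 enzyme activity toward a synthetic peptide substrate, from the DrugMatrix protease screening panel; in other assays of this panel Not Active means under 50% inhibition at 10 µM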
Matrix metalloproteinase-9, sequence (P14780 whole entry): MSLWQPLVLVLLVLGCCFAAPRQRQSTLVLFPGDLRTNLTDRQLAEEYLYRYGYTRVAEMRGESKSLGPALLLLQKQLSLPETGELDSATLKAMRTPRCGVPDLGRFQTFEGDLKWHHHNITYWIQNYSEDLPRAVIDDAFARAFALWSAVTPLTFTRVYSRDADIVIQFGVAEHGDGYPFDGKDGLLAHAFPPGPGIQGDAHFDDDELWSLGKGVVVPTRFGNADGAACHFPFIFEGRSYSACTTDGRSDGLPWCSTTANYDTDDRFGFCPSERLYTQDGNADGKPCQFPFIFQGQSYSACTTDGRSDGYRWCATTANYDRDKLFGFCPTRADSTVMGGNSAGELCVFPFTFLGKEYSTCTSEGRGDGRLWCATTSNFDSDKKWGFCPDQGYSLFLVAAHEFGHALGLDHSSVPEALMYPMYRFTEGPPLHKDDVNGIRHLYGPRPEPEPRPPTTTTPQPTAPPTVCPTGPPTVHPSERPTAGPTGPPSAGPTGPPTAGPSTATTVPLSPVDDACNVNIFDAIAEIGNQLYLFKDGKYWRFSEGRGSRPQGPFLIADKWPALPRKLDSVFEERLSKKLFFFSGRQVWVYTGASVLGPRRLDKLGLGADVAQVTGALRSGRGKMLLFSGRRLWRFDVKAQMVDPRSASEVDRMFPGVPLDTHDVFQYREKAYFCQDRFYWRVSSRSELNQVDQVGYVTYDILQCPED

[5] = target: T1, C-C chemokine receptor type 4 (Homo sapiens, UniProt P51679); type: cell membranes, Membrane; conditions: chem-1; note: in other assays of this panel Not Active means under 50% inhibition at 10 µM
T1 sequence (P51679 whole entry): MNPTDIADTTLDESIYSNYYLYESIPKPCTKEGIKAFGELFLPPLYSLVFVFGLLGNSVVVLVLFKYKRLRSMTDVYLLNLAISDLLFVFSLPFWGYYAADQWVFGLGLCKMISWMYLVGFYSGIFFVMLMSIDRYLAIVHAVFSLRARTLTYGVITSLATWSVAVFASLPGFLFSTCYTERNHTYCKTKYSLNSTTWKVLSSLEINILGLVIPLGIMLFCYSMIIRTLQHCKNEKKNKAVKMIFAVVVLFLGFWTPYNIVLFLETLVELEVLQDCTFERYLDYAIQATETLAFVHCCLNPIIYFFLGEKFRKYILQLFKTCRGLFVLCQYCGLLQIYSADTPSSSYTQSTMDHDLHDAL

[6] = DRUGMATRIX: Potassium Channel [KATP] radioligand binding (ligand: [3H] Glyburide); type: cell membranes, Membrane; conditions: hit-t15; Not Active = under 50% inhibition at 10 µM
Cytochrome P450 3A4 = Cytochrome P450 3A4 (Homo sapiens, UniProt P08684); conditions: bti-tn-5b1-4; note: in other assays of this panel Not Active means under 50% inhibition at 10 µM
Cytochrome P450 3A4, sequence (P08684 whole entry): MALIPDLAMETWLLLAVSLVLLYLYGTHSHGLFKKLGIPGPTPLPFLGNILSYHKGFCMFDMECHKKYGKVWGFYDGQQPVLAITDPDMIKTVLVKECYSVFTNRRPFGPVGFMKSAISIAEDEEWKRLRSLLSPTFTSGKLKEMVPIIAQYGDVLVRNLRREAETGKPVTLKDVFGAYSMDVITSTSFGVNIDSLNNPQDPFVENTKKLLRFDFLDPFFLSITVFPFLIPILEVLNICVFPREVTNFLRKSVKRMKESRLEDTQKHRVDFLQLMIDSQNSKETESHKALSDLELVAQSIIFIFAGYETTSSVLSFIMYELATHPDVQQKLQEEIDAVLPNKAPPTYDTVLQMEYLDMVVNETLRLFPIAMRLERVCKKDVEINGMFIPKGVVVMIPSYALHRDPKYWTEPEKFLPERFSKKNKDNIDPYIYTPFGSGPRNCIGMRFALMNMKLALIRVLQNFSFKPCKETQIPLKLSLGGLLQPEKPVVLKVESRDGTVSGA

Cytochrome P450 2E1 = Cytochrome P450 2E1 (Homo sapiens, UniProt P05181); conditions: bti-tn-5b1-4; note: in other assays of this panel Not Active means under 50% inhibition at 10 µM
Cytochrome P450 2E1, sequence (P05181 whole entry): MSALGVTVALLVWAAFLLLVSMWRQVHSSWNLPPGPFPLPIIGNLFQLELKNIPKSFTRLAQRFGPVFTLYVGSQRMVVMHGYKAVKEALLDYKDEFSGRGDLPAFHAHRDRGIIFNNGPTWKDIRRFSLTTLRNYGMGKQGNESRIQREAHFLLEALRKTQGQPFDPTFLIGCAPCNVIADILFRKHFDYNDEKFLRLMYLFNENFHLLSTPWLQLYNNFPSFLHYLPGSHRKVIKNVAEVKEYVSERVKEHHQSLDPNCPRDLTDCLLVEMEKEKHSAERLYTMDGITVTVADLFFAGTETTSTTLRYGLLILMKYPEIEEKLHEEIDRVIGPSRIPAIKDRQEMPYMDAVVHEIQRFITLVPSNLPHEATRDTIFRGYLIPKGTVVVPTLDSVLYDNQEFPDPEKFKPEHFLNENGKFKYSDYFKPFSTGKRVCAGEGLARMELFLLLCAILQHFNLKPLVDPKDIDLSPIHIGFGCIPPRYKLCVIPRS

Insulin receptor = Insulin receptor (Rattus norvegicus, UniProt P15127); type: cell membranes, Wistar, Liver, Membrane; note: in other assays of this panel Not Active means under 50% inhibition at 10 µM
Insulin receptor, sequence (P15127 27-759 limits assumed): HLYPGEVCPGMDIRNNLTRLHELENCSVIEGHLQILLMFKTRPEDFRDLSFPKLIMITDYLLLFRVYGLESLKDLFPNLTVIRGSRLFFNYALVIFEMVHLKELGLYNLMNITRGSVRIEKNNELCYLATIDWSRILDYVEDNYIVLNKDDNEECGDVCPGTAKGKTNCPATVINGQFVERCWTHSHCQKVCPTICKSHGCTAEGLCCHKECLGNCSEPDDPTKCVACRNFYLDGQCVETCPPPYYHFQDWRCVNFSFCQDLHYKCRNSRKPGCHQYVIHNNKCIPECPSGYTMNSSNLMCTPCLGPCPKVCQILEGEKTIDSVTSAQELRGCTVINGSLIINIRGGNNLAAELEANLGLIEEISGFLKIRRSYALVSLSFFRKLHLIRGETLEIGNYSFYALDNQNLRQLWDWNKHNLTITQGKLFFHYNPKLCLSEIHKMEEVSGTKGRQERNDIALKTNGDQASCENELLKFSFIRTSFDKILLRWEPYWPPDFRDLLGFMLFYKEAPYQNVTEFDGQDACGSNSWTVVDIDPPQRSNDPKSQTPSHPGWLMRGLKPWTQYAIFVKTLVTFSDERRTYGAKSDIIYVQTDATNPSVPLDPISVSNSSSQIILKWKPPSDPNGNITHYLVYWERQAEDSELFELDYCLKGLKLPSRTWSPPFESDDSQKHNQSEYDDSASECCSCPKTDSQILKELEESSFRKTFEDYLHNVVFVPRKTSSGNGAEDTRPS
Insulin receptor, sequence (P15127 764-1383 limits assumed): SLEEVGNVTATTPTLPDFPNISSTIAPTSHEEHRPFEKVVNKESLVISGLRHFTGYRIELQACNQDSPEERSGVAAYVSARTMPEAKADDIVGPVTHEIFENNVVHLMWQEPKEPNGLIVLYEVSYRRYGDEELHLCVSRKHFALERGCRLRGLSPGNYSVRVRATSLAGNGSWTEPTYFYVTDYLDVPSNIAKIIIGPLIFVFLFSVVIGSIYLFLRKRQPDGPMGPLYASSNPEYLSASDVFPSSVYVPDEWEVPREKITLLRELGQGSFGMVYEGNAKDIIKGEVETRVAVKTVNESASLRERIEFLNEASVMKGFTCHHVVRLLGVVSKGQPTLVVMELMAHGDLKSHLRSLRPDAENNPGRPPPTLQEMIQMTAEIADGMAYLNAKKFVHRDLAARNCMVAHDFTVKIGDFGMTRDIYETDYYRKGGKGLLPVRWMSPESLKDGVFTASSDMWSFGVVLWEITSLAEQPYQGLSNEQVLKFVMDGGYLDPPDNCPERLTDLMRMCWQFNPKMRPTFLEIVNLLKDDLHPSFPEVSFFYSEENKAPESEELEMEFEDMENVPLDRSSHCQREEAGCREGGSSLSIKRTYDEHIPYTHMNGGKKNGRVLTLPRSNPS

CC1(C)S[C@@H]2[C@H](NC(=O)[C@H](N)c3ccccc3)C(=O)N2[C@H]1C(=O)O [AMPICILLIN]
Not Active: IC50 [1] | Ki [1] | IC50 [2] | IC50 [3] | Ki [3] | IC50 [4] | IC50 [5] | IC50 [6] | Ki [6] | IC50 (Cytochrome P450 3A4) | Ki (Cytochrome P450 3A4) | IC50 (Cytochrome P450 2E1) | Ki (Cytochrome P450 2E1) | IC50 (Insulin receptor)

Cn1c(=O)c2c(ncn2CC(O)CO)n(C)c1=O (stereo unspecified) [DYPHYLLINE]
Not Active: IC50 [1] | Ki [1] | IC50 [2] | IC50 [3] | Ki [3] | IC50 [4] | IC50 [5] | IC50 [6] | Ki [6] | IC50 (Cytochrome P450 3A4) | Ki (Cytochrome P450 3A4) | IC50 (Cytochrome P450 2E1) | Ki (Cytochrome P450 2E1) | IC50 (Insulin receptor)

CN(C)[C@@H]1C(O)=C(C(N)=O)C(=O)[C@@]2(O)C(O)=C3C(=O)c4c(O)ccc(Cl)c4[C@@](C)(O)[C@H]3C[C@@H]12 [CHLORTETRACYCLINE]
Not Active: IC50 [1] | Ki [1] | IC50 [2] | IC50 [3] | Ki [3] | IC50 [4] | IC50 [5] | IC50 [6] | Ki [6] | IC50 (Cytochrome P450 3A4) | Ki (Cytochrome P450 3A4) | IC50 (Cytochrome P450 2E1) | Ki (Cytochrome P450 2E1) | IC50 (Insulin receptor)

Cn1c(=O)c2[nH]cnc2n(C)c1=O.Cn1c(=O)c2[nH]cnc2n(C)c1=O.NCCN [AMINOPHYLLINE]
Not Active: IC50 [1] | Ki [1] | IC50 [2] | IC50 [3] | Ki [3] | IC50 [4] | IC50 [5] | IC50 [6] | Ki [6] | IC50 (Cytochrome P450 3A4) | Ki (Cytochrome P450 3A4) | IC50 (Cytochrome P450 2E1) | Ki (Cytochrome P450 2E1) | IC50 (Insulin receptor)

C[C@H]1O[C@@H](n2cc(F)c(=O)[nH]c2=O)[C@H](O)[C@@H]1O [DOXIFLURIDINE]
Not Active: IC50 [1] | Ki [1] | IC50 [2] | IC50 [3] | Ki [3] | IC50 [4] | IC50 [5] | IC50 [6] | Ki [6] | IC50 (Cytochrome P450 3A4) | Ki (Cytochrome P450 3A4) | IC50 (Cytochrome P450 2E1) | Ki (Cytochrome P450 2E1) | IC50 (Insulin receptor)

CC(C(=O)O)c1ccc2oc(-c3ccc(Cl)cc3)nc2c1 (stereo unspecified) [BENOXAPROFEN]
Not Active: IC50 [1] | Ki [1] | IC50 [2] | IC50 [3] | Ki [3] | IC50 [4] | IC50 [5] | IC50 [6] | Ki [6] | IC50 (Cytochrome P450 3A4) | Ki (Cytochrome P450 3A4) | IC50 (Cytochrome P450 2E1) | Ki (Cytochrome P450 2E1) | IC50 (Insulin receptor)

Oc1c(Cl)cc(Cl)c(Cl)c1Cc1c(O)c(Cl)cc(Cl)c1Cl [HEXACHLOROPHENE]
Not Active: IC50 [1] | Ki [1] | IC50 [2] | IC50 [3] | Ki [3] | IC50 [4] | IC50 [5] | IC50 [6] | Ki [6] | IC50 (Cytochrome P450 3A4) | Ki (Cytochrome P450 3A4) | IC50 (Cytochrome P450 2E1) | Ki (Cytochrome P450 2E1) | IC50 (Insulin receptor)

C#C[C@]1(OC(C)=O)CC[C@H]2[C@@H]3CCC4=C[C@@H](OC(C)=O)CC[C@@H]4[C@H]3CC[C@@]21C [ETHYNODIOL DIACETATE]
Not Active: IC50 [1] | Ki [1] | IC50 [2] | IC50 [3] | Ki [3] | IC50 [4] | IC50 [5] | IC50 [6] | Ki [6] | IC50 (Cytochrome P450 3A4) | Ki (Cytochrome P450 3A4) | IC50 (Cytochrome P450 2E1) | Ki (Cytochrome P450 2E1) | IC50 (Insulin receptor)

CCC(=O)O[C@]1(C(=O)CCl)[C@@H](C)C[C@H]2[C@@H]3CCC4=CC(=O)C=C[C@]4(C)[C@@]3(F)[C@@H](O)C[C@@]21C [CLOBETASOL PROPIONATE]
Not Active: IC50 [1] | Ki [1] | IC50 [2] | IC50 [3] | Ki [3] | IC50 [4] | IC50 [5] | IC50 [6] | Ki [6] | IC50 (Cytochrome P450 3A4) | Ki (Cytochrome P450 3A4) | IC50 (Cytochrome P450 2E1) | Ki (Cytochrome P450 2E1) | IC50 (Insulin receptor)

C[C@@H](CO)NC(=O)[C@@H]1C=C2c3cccc4[nH]cc(c34)C[C@H]2N(C)C1 [ERGONOVINE]
Not Active: IC50 [1] | Ki [1] | IC50 [2] | IC50 [3] | Ki [3] | IC50 [4] | IC50 [5] | IC50 [6] | Ki [6] | IC50 (Cytochrome P450 3A4) | Ki (Cytochrome P450 3A4) | IC50 (Cytochrome P450 2E1) | Ki (Cytochrome P450 2E1) | IC50 (Insulin receptor)

Nc1ccc2c3c(cccc13)C(=O)NC2=O
Not Active: IC50 [1] | Ki [1] | IC50 [2] | IC50 [3] | Ki [3] | IC50 [4] | IC50 [5] | IC50 [6] | Ki [6] | IC50 (Cytochrome P450 3A4) | Ki (Cytochrome P450 3A4) | IC50 (Cytochrome P450 2E1) | Ki (Cytochrome P450 2E1) | IC50 (Insulin receptor)

CCN(CC)CCOCCC1=CCC2CC1C2(C)C (stereo unspecified) [MYRTECAINE]
Not Active: IC50 [1] | Ki [1] | IC50 [2] | IC50 [3] | Ki [3] | IC50 [4] | IC50 [5] | IC50 [6] | Ki [6] | IC50 (Cytochrome P450 3A4) | Ki (Cytochrome P450 3A4) | IC50 (Cytochrome P450 2E1) | Ki (Cytochrome P450 2E1) | IC50 (Insulin receptor)

CCCOc1ccc(C(=O)OCCN(CC)CC)cc1N [PROPARACAINE]
Not Active: IC50 [1] | Ki [1] | IC50 [2] | IC50 [3] | Ki [3] | IC50 [4] | IC50 [5] | IC50 [6] | Ki [6] | IC50 (Cytochrome P450 3A4) | Ki (Cytochrome P450 3A4) | IC50 (Cytochrome P450 2E1) | Ki (Cytochrome P450 2E1) | IC50 (Insulin receptor)

O=C(O)c1cccnc1Nc1cccc(C(F)(F)F)c1 [NIFLUMIC ACID]
Not Active: IC50 [1] | Ki [1] | IC50 [2] | IC50 [3] | Ki [3] | IC50 [4] | IC50 [5] | IC50 [6] | Ki [6] | IC50 (Cytochrome P450 3A4) | Ki (Cytochrome P450 3A4) | IC50 (Cytochrome P450 2E1) | Ki (Cytochrome P450 2E1) | IC50 (Insulin receptor)
